Reference: EP0738149B1 (priority 1994, dated 1995)
Structures can show the parent of a compound that is named as a salt. Where two headings read alike, the source gives them in different places.

How the values were obtained:
[1] = system: mice; test: Maximal electroshock (MES) model in mice, i.p.;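 also: Electroshock-induced convulsion model serving to demonstrate antiepileptic efficacy against generalized and partial seizures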; format: in vivo; conditions: Mus musculus, ip, Table 15
[2] = system: mice; conditions: Mus musculus, ip
[3] = system: mice; test: in vivo; conditions: mouse, in vivo, ip
Description: (§1) Neurotoxicity of the claimed agents was also assessed in mice (i.p. administration) by the rotorod ataxia test and/or in rats (p.o. administration) by positional sense test and gait stance test. […] The term quantitating the neurotoxicity is the medial neurological toxic dose (TD50), was determined in the above tests.

[4] = in vivo; conditions: mouse, in vivo, ip
Description: as §1

[5] = system: rats; test: Electrically kindled rat model of epilepsy, p.o.; format: in vivo; conditions: po, read-out: ED50 (prevented seizures)
Description: The rat electrical kindling model of epilepsy has been known to show efficacy of antiepileptic agents against complex partial seizures that evolve into generalized motor seizures. In these tests, rats were electrically stimulated via corneal electrodes twice daily for approximately 5 days and then once daily for an additional 10 days. Once the seizure criteria, as described by R.J. Racine, et al., Electroenceph. Clin. Neurophysiol. 32: 281-294 (1972), were met, the test substance was administered p.o. to rats, and the rat electrically stimulated, and observed for the presence or absence of a seizure.

[6] = system: rats; test: Maximal electroshock (MES) model in rats, p.o.;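 as to all read-outs here: rat MES model gauging antiepileptic efficacy versus generalized and partial seizures after oral dosing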; format: in vivo; conditions: Table 15; for ED50: Rattus norvegicus, po
[7] = system: rats; conditions: Rattus norvegicus, po, read-out: RATS scMet ED50
[8] = system: Male mongolian gerbils; test: Global brain ischemia in gerbils (CA1 pyramidal neurons); format: in vivo; conditions: 3 injections, fraction of hippocampi protected from ischemia, 14 days post-ischemia
Description: Each artery was clamped for 5 minutes with aneurysm clips to produce global brain ischemia. The anesthesia was discontinued upon clamping. After 5 minutes the clamps were removed and the wound closed with skin clips.
For treatment, the test compound or vehicle were injected intra-peritoneally (ip) in a volume of 50 microliters of solvent per 10g body weight. The first injection was given two minutes after clamp removal, and thereafter daily for the next 2 post-operative days (total of 3 injections).
Seven groups each of 4-8 animals were compared: • I. Control; (sham- or unoperated and saline treated), • II. Vehicle treated, unoperated (when solvent is other than saline), • III. Ischemia - untreated or saline treated), • IV. Ischemia - vehicle treated (when solvent is other than saline), • V. Ischemia - Test compound treated, one sub-group per concentration tested, • VI. Ischemia and pentobarbital (40 mg/kg) as positive control).
Analysis of neuronal damage was performed 14 days post-ischemia by counting pyramidal neurons throughout the CA1 layer of the anterior hippocampus in […] thick (paraffin) coronal brain sections stained with hematoxylin and erosin.
Percent Protection values represent the fraction of hippocampi protected from ischemia in a group of animals treated with the stated dose of compound.

[9] = system: mechanically dissociated neonatal rat cerebellum; test: Enhancement of cell survival in cultures of neonatal rat cerebellum (no NMDA); format: cell-based; conditions: 24 hours after addition, percentage of the number of control cells on the fourth day
Description: The cerebellum was aseptically dissociated from 6 or 7-day old rat pups and placed in a 15ml sterile plastic conical tube containing 3ml of Dulbecco's modified Eagle's medium (DMEM) with a high glucose concentration ([…]) and 2mM (v/v) L-glutamine and an antibiotic antimitotic mixture. The cerebella were then dissociated after 20-25 passages through a sterile 13 gauge, 10cm long stainless steel needle attached to a 5ml syringe with an inserted 45 micrometer pore nylon sieve. The dissociated cells were centrifuged at 200g for 5 minutes. […] Cell viability was determined by the tryptan blue exclusion test.
Cells were plated at a density of 200/mm^2 on poly-L-lysine coated surfaces. Poly-L-lysine coated glass coverslips were prepared at least one hour in advance of plating by immersing sterile coverslips in sterile distilled water solution containing 15 microgram/ml poly-L-lysine, and washing in sterile water just prior to use. […] After three days in culture, the media was replaced with media containing the desired test compound. Each test compound was tested in duplicate. Toxic-dose response was determined for each compound.
Cell cultures were grown as described above but in the absence of NMDA and after 3 days a dose of test compound was added. Cell survival was monitored as described above.

[10] = system: mechanically dissociated neonatal rat cerebellum; test: Reversal of NMDA induced cell death in cultures of neonatal rat cerebellum; format: cell-based; conditions: for SURVIVING CELL IN CULTURE: relative to control (100%); for PERCENT PROTECTION: Cell Survival minus the NMDA effect; for EFFECTIVE PROTECTION: X x 100/70
Description: The cerebellum was aseptically dissociated from 6 or 7-day old rat pups and placed in a 15ml sterile plastic conical tube containing 3ml of Dulbecco's modified Eagle's medium (DMEM) with a high glucose concentration ([…]) and 2mM (v/v) L-glutamine and an antibiotic antimitotic mixture. The cerebella were then dissociated after 20-25 passages through a sterile 13 gauge, 10cm long stainless steel needle attached to a 5ml syringe with an inserted 45 micrometer pore nylon sieve. The dissociated cells were centrifuged at 200g for 5 minutes. The supernatant was discarded and the cells resuspended in medium enriched with 15% (v/v) heat inactivated fetal calf serum. Cell viability was determined by the tryptan blue exclusion test.
Cells were plated at a density of 200/mm^2 on poly-L-lysine coated surfaces. Poly-L-lysine coated glass coverslips were prepared at least one hour in advance of plating by immersing sterile coverslips in sterile distilled water solution containing 15 microgram/ml poly-L-lysine, and washing in sterile water just prior to use. The plated cells were covered with enriched medium and incubated at 37°C in an atmosphere of 5% CO2 in air and 97% humidity. After three days in culture, the media was replaced with media containing the desired test compound. Each test compound was tested in duplicate. Toxic-dose response was determined for each compound.
Four groups were run in each set of experiments; • I. Control, consisting of enriched media alone, • II. N-methyl-D-aspartate (NMDA, 1mM for 3 hours) as the cytotoxic challenge, • III. Test compound plus NMDA, and • IV. Positive control, spermine(0.01 micromoles) plus NMDA.
Nerve cell survival was evaluated by phase contrast microscopy and tryptan blue staining after 24 hours.
Surviving cells in culture are measured relative to control (100%), as described above. Percent protection is the Cell Survival for the test compound minus the NMDA effect. Thus, maximal protection is 100% minus 30% NMDA effect i.e. […]. The Effective Protection was calculated as the percent of the Percent Protection (X) divided by the maximal protection value (e.g. X x 100/70).

[11] = in vivo; conditions: rat, in vivo, po
Description: as §1

[12] = system: rats; test: Neurotoxicity in rats (positional sense test and gait stance test), p.o.; conditions: rats, p.o.; Table 16
Description: as §1

[13] = read-out: MICE scMet ED50, mice, i.p., Table 16
[14] = 0.005 µM + NMDA 1mM for 3 hours
[15] = 0.010 µM + NMDA 1mM for 3 hours
[16] = rats, p.o., read-out: RATS MES 50

Compound	ED50 [1] [mg/kg]	ED50 [2, 13] [mg/kg]	MICE TD50 [3] [mg/kg]	TD50 ([4]; MICE TD50) [mg/kg]	ED50 [5] [mg/kg]	ED50 [7] [mg/kg]	PERCENT PROTECTION ([8]; 0.1 mg/kg ip) [%]	PERCENT PROTECTION ([8]; 1.0 mg/kg ip) [%]	PERCENT PROTECTION ([8]; 10.0 mg/kg ip) [%]	% ENHANCED SURVIVAL ([9]; 0.005 µM) [%]	SURVIVING CELL IN CULTURE [10, 14] [%]	PERCENT PROTECTION ([10]; 0.005 µM + NMDA) [%]	EFFECTIVE PROTECTION ([10]; 0.005 µM + NMDA) [%]	SURVIVING CELL IN CULTURE [10, 15] [%]	PERCENT PROTECTION ([10]; 0.010 µM + NMDA) [%]	EFFECTIVE PROTECTION ([10]; 0.010 µM + NMDA) [%]	TD50 [11] [mg/kg]	RATS TD50 [12] [mg/kg]	ED50 [6, 16] [mg/kg]	further results
CC(=O)NC1CCc2ccccc21 (racemic) [Example 17, (rac)-N-Acetyl-1-aminoindan]	33	71.5	90	90	< 75															
NC(=O)CN[C@H]1CCc2ccccc21 [Example 2, (S)-N-(2-Acetamido)-1-aminoindan.HCl]	39	> 150				> 250	0	50.0	37.5	140	56	26	37	51	21	30	> 500	>500		RATS MES 50 ([6]; rats, p.o.): 21 mg/kg; TD50 ([4]; MICE TD50, mice, Table 15): 137 mg/kg; TD50 ([4]; MICE TD50, mice, Table 16): 137 mg/kg; % ENHANCED SURVIVAL ([9]; 0.01 µM): 125%; SURVIVING CELL IN CULTURE ([10]; 0.100 µM + NMDA 1mM for 3 hours): 33%; PERCENT PROTECTION ([10]; 0.100 µM + NMDA): 3%; EFFECTIVE PROTECTION ([10]; 0.100 µM + NMDA): 4%
CC(=O)N[C@H]1CCc2ccccc21 [Example 19, (S)-N-Acetyl-1-aminoindan]	40	86	61	61	> 50	> 250	25.0	0	37.5	120	30	0	0	42	12	17	> 500	>500	24	SURVIVING CELL IN CULTURE ([10]; 0.001 µM + NMDA 1mM for 3 hours): 80%; PERCENT PROTECTION ([10]; 0.001 µM + NMDA): 50%; EFFECTIVE PROTECTION ([10]; 0.001 µM + NMDA): 71%; SURVIVING CELL IN CULTURE ([10]; 1.000 µM + NMDA 1mM for 3 hours): 15%; PERCENT PROTECTION ([10]; 1.000 µM + NMDA): -15%
COc1ccc2c(c1OC)CC[C@H]2NC(C)=O [Example 21, (R)-4,5-Dimethoxy-N-acetyl-1-aminoindan]	40	150	137	137		> 250											> 500	>500	21	
CC(=O)N[C@@H]1CCc2ccc(F)cc21 [Example 23, (R)-6-Fluoro-N-acetyl-1-aminoindan]	65	155	155	155		> 250											> 500	>500	25	
C#CCN[C@H]1CCc2ccccc21.Cl [G, (S)-N-propargyl-1-aminoindan HCl salt]	57					> 250														ED50 ([6]; read-out: RATS MES 50, rats, p.o.): 57 mg/kg; ED50 ([2]; read-out: MICE scMet ED50): > 250 mg/kg
